Laboratory results taken from paper PMC6964649, “Light-controllable dithienylethene-modified cyclic peptides: photoswitching the in vivo toxicity in zebrafish embryos” (Beilstein Journal of Organic Chemistry, 2020).
Starred links: 1 amine or outer side, 2 acyl side, 3 side chain; linkers in the order of their positions; H or OH if unused. Positions of bridges follow the written chain, without caps; N, C: chain ends. Non-standard residues stand in square brackets, D forms with d. Residues, ends and D or L forms follow the SMILES beside them. *: point of attachment. X2 = Cc1sc(C(=O)[C@@H]2CCCN2[*:2])cc1C1=C(c2cc(C(=O)[*:1])sc2C)CCC1; Leu(3R-OH) = CC(C)[C@@H](O)[C@H](N)C(=O)O; NMeL = CN[C@@H](CC(C)C)C(=O)O; Orn = NCCC[C@H](N)C(=O)O; NHiPr = CC(C)N*

Legend:
[1] = test system: D. rerio embryos; assay: D. rerio embryotoxicity "photoactivation" assay (ring-closed photoform in darkness, then in situ photoconversion); assay type: in vivo, Danio rerio; settings: for LD50 (opened)^1h / LD50 (opened)^24h: after 24 h with ring-closed form in dark, in situ illumination 10 min, λ = 570 nm, approx. 20 mW/cm^2; for LD50 (opened)^1h: mortality 1 h after illumination, embryos 4 dpf; for LD50 (opened)^1h / LD50 (opened)^24h / LD50 (closed)^24h: value ± STD; for LD50 (opened)^24h: mortality 24 h after illumination, embryos 5 dpf at readout; for LD50(closed)^24h/LD50(open)^24h ratio: phototherapeutic safety window, ring-closed 24 h LD50 (dark) divided by ring-open 24 h LD50 (direct application); for LD50 (closed)^24h: ring-closed photoform applied to embryos at 3 dpf, 24 h in the dark, sealed vials, E3 medium, 0.2% DMSO
Protocol: (§1) To establish the assay for screening the photoswitchable peptides, we first studied the toxicity of our prototype 2 by varying the assay conditions. The parent peptide GS 1 was used as a control. […] We measured the doses causing the death of 50% embryos (LD50). We tested two different assay variations: in one version, the LD50(open) was determined after direct application of 1 or of the ring-open form of 2. In the other variant, the photoswitchable peptide was applied in the ring-closed photoform in the darkness, its LD50(closed) was recorded, and then in situ illumination (“photoactivation”) was applied to switch into the ring-open photoform and obtain the respective LD50(opened) values (see Figure 2 for the study design and the killing curves).
(§2) Figure 2 Two versions of the D. rerio embryotoxicity assay for DAE-modified peptides: timelines, peptide photostates, ages of larvae, and definitions of the measured characteristics. (A) Direct application of the non-photoswitchable parent GS 1 or of the ring-open photoform of our prototype 2, and the corresponding killing curves for 1 (C, top, black) and 2 (C, bottom, red). (B) “Photoactivation” assay: initial application of the ring-closed photoform, incubation in darkness, followed by in situ photoconversion into the ring-open(ed) photoform, with the corresponding killing curves for 1 (D, top) and 2 (D, bottom, green for ring-closed, red for ring-open isomers). The latter panel illustrates the “phototherapeutic safety window” (green arrow) as the difference in toxicity between the ring-closed and the ring-open isomers upon photoactivation.
(§3) Each time, 12–15 or 18–20 zebrafish embryos at 3 dpf were treated by applying the corresponding peptide dissolved in dimethyl sulfoxide (final dimethyl sulfoxide concentration was 0.2%). Double-concentrated peptide stock solutions (64–512 µg/mL) were prepared by weighing lyophilized peptides, dissolving in 10% dimethyl sulfoxide and constructing two-fold dilution series with ten–eleven dilution steps. In the photoconversion experiments, in order to prevent spontaneous photoswitching of the ring-closed peptides by vis light, zebrafish embryos and peptides were kept in the dark before the first readout, and the vials were sealed to avoid evaporation of the embryonic medium (E3) at prolonged incubation times. After the first screen, without exchanging any solution, the vials with embryos and ring-closed photoforms were exposed to intense illumination for 10 min (LUMATEC Superlite 410 light source, λ = 570 nm, irradiance approximately 20 mW/cm^2). Mortality was then determined under ambient light conditions at 1 h and 24 h after the illumination procedure.

[2] = test system: D. rerio embryos; assay: D. rerio embryotoxicity assay, direct application of ring-open photoform; assay type: in vivo, Danio rerio; settings: direct application of 1 or ring-open photoform, zebrafish embryos at 3 dpf, final DMSO 0.2%, ambient light, value ± STD; for LD50 (open)^1h: 1 h incubation, 12–15 or 18–20 embryos; for LD50 (open)^3h: 3 h incubation; for LD50 (open)^24h: 24 h incubation
Protocol: as §1, §2, §3

| Compound | LD50 (opened)^1h [1] [µg/mL] | LD50 (opened)^24h [1] [µg/mL] | LD50(closed)^24h/LD50(open)^24h ratio [1] | LD50 (closed)^24h [1] [µg/mL] | LD50 (open)^1h [2] [µg/mL] | LD50 (open)^3h [2] [µg/mL] | LD50 (open)^24h [2] [µg/mL] |
| --- | --- | --- | --- | --- | --- | --- | --- |
| Cc1sc2cc1C1=C(CCC1)c1cc(sc1C)C(=O)[C@@H]1CCCN1C(=O)[C@H](CC(C)C)NC(=O)[C@H](CCCCN)NC(=O)[C@H](C(C)C)NC(=O)[C@H](CCCCN)NC(=O)[C@H](CC(C)C)NC(=O)[C@@H]1CCCN1C(=O)[C@@H](Cc1ccccc1)NC(=O)[C@H](C(C)C)NC(=O)[C@H](CCCCN)NC(=O)[C@H](CC(C)C)NC(=O)[C@H](CCCCN)NC(=O)[C@H](C(C)C)NC2=O [Peptide 16] (VKLKV[dF]PLKVKL; linker N-C via X2) | 5.6 ± 0.5 | 5.2 ± 0.5 | 3.8 | 6.0 ± 0.1 | 3.1 ± 1.0 | 3.1 ± 1.0 | 1.6 ± 0.0 |
| Cc1sc2cc1C1=C(CCC1)c1cc(sc1C)C(=O)[C@@H]1CCCN1C(=O)[C@H](C(C)C)NC(=O)[C@H](CCCN)NC(=O)[C@H](C(C)C)NC(=O)[C@@H]1CCCN1C(=O)[C@@H](Cc1ccccc1)NC(=O)[C@H](C(C)C)NC(=O)[C@H](CCCN)NC(=O)[C@H]([C@H](O)C(C)C)NC2=O [Peptide 12] ([Leu(3R-OH)][Orn]V[dF]PV[Orn]V; linker N-C via X2) | 6.2 ± 0.0 | 2.1 ± 1.0 | 21.4 | 77.0 ± 19.4 | 9.2 ± 1.1 | 6.7 ± 0.4 | 3.6 ± 0.5 |
| Cc1sc2cc1C1=C(CCC1)c1cc(sc1C)C(=O)[C@@H]1CCCN1C(=O)[C@H](C(C)C)NC(=O)[C@H](CCCCN)NC(=O)[C@H](C(C)C)NC(=O)[C@@H](CCCCN)NC(=O)[C@H](CC(C)C)NC(=O)[C@@H]1CCCN1C(=O)[C@@H](Cc1ccccc1)NC(=O)[C@H](C(C)C)NC(=O)[C@H](CCCCN)NC(=O)[C@H](CC(C)C)NC(=O)[C@H](CCCCN)NC(=O)[C@H](C(C)C)NC2=O [Peptide 17] (VKLKV[dF]PL[dK]VKV; linker N-C via X2) | 9.9 ± 0.1 | 9.4 ± 0.7 | 3.1 | 9.9 ± 0.1 | 10.5 ± 5.8 | 10.5 ± 5.8 | 3.2 ± 0.2 |
| CC[C@H](C)[C@@H]1NC(=O)c2cc(c(C)s2)C2=C(CCC2)c2cc(sc2C)C(=O)[C@@H]2CCCN2C(=O)[C@H](CC(C)C)NC(=O)[C@H](CCCN)NC(=O)[C@H]([C@@H](C)CC)NC(=O)[C@@H]2CCCN2C(=O)[C@H]2CCCN2C(=O)[C@H](CC(C)C)NC(=O)[C@H](CCCN)NC1=O [Peptide 9] (I[Orn]L[dP]PI[Orn]L; linker N-C via X2) | 2.2 ± 0.5 | 0.8 ± 0.1 | 5.7 | 9.1 ± 2.7 | 2.0 ± 1.1 | 2.1 ± 0.8 | 1.6 ± 0.3 |
| CC[C@H](C)[C@@H]1NC(=O)c2cc(c(C)s2)C2=C(CCC2)c2cc(sc2C)C(=O)[C@@H]2CCCN2C(=O)[C@H]([C@@H](C)CC)NC(=O)[C@H](CCCN)NC(=O)[C@H](CC(C)C)NC(=O)[C@H](CC(C)C)N(C)C(=O)[C@@H](Cc2ccccc2)NC(=O)[C@H]([C@@H](C)CC)NC(=O)[C@H](CCCN)NC1=O [Peptide 10] (I[Orn]I[dF][NMeL]L[Orn]I; linker N-C via X2) | 2.2 ± 1.0 | 1.3 ± 1.5 | 9.5 | 9.5 ± 0.1 | 1.3 ± 1.5 | 1.0 ± 0.6 | 1.0 ± 0.6 |
| Cc1sc2cc1C1=C(CCC1)c1cc(sc1C)C(=O)[C@@H]1CCCN1C(=O)[C@H](C(C)C)NC(=O)[C@H](CCCN)NC(=O)[C@H](C(C)C)NC(=O)[C@@H]1CCCN1C(=O)[C@@H](Cc1ccccc1)NC(=O)[C@H](C(C)C)NC(=O)[C@H](CCCN)NC(=O)[C@H](CC(=O)NC(C)C)NC2=O [Peptide 7] (D(NHiPr)[Orn]V[dF]PV[Orn]V; linker N-C via X2) | 18.2 ± 4.6 | 3.0 ± 2.5 | 45.9 | – | 15.9 ± 4.3 | 8.7 ± 9.1 | 5.8 ± 0.4 |
| Cc1sc2cc1C1=C(CCC1)c1cc(sc1C)C(=O)[C@@H]1CCCN1C(=O)[C@H](C(C)C)NC(=O)[C@H](CCCN)NC(=O)[C@H]([C@H](O)C(C)C)NC(=O)[C@@H]1CCCN1C(=O)[C@@H](Cc1ccccc1)NC(=O)[C@H](C(C)C)NC(=O)[C@H](CCCN)NC(=O)[C@H]([C@H](O)C(C)C)NC2=O [Peptide 15] ([Leu(3R-OH)][Orn]V[dF]P[Leu(3R-OH)][Orn]V; linker N-C via X2) | 22.9 ± 0.2 | 7.2 ± 0.7 | 7.8 | 56.1 ± 12.2 | 36.5 ± 2.1 | 14.1 ± 6.0 | 7.2 ± 3.8 |
| Cc1sc2cc1C1=C(CCC1)c1cc(sc1C)C(=O)[C@@H]1CCCN1C(=O)[C@H]([C@H](O)C(C)C)NC(=O)[C@H](CCCN)NC(=O)[C@H](C(C)C)NC(=O)[C@@H]1CCCN1C(=O)[C@@H](Cc1ccccc1)NC(=O)[C@H](C(C)C)NC(=O)[C@H](CCCN)NC(=O)[C@H](C(C)C)NC2=O [Peptide 14] | 9.1 ± 4.2 | 4.6 ± 2.0 | 25.2 | 50.4 ± 27.2 | 8.1 ± 2.0 | 6.2 ± 0.7 | 2.0 ± 0.0 |
| Cc1sc2cc1C1=C(CCC1)c1cc(sc1C)C(=O)[C@@H]1CCCN1C(=O)[C@H](CC(C)C)NC(=O)[C@H](CCCN)NC(=O)[C@H](C(C)C)NC(=O)[C@@H]1CCCN1C(=O)[C@@H](Cc1ccccc1)NC(=O)[C@H](CC(C)C)NC(=O)[C@H](CCCN)NC(=O)[C@H](CCCN)NC2=O [Peptide 5] | 8.1 ± 1.0 | 5.3 ± 0.5 | 2.5 | 8.1 ± 1.0 | 4.8 ± 2.2 | 2.8 ± 1.9 | 3.3 ± 0.7 |
| CC(C)C[C@@H]1NC(=O)[C@H](CCCN)NC(=O)[C@H](C(C)C)NC(=O)[C@@H]2CCCN2C(=O)[C@@H](Cc2ccccc2)NC(=O)[C@H](CC(C)C)NC(=O)[C@H](CCCN)NC(=O)[C@H](C(C)C)NC(=O)[C@@H]2CCCN2C(=O)[C@@H](Cc2ccccc2)NC1=O [Peptide 1, gramicidin S, reference compound] (cyclo(L[dF]PV[Orn]L[dF]PV[Orn])) | – | – | – | – | 2.8 ± 2.7 | 2.0 ± 3.0 | 2.4 ± 0.2 |
